A word on the EC50: it is the concentration that produces a half-maximal response. A higher EC50 goes with lower potency in that assay.

Here are results for 20 compounds from EP4008716A1, “NOVEL INHIBITORS OF INSULIN-LIKE GROWTH FACTOR 2 MRNA BINDING PROTEINS” (Martin-Luther-Universität Halle-Wittenberg, priority 2020, dated 2022).

One assay has as its system ES-2 cells. The experiment in a line: Cytotoxicity / cell vitality by cell confluency (IncuCyte live-cell imaging) relative to DMSO controls. The format is cell-based. Particulars: Homo sapiens, ovarian cancer-derived ES-2 cells, 72 h post compound application, eleven concentrations, two-fold dilution from 20µM, mean of three independent studies. On the procedure: All novel inhibitors were explored for their cytotoxic activity in ovarian cancer-derived ES-2 cells. In these cell models, BTYNB was prior shown to impair cell vitality and metastatic potential in vitro and cancer mouse models (15). For the respective studies ES-2 cells were plated and exposed to increasing concentration of the compounds and cell vitality was monitored by determining cell confluency relative to DMSO controls using an IncuCyte cell imaging system, essentially as described recently (15). For determining the impact of the developed compounds on ES-2 cell vitality, cells were cultured in Dulbecco's modified eagle medium (DMEM) containing phenol red, 4.5 g/L D-Glucose, 0.11 g/L sodium pyruvate, 10% (v/v) fetal bovine serum (FBS) and 2 mM GlutaMAX (Sigma-Aldrich, Darmstadt, Germany). Cells were maintained in under humidified conditions at 37 °C, 5% CO2. For cytotoxicity studies, cells were seeded in 96-well flat-bottom plates at 2 x 10^3 cells per well in 100 µL supplemented DMEM and incubated for 24 h prior to addition of BTYNB derivatives. Compounds were analyzed at eleven concentrations using a two-fold dilution with an initial compound concentration of 20µM in DMSO (solvent). Cells treated with 0.002% (v/v) DMSO served as controls. Cytotoxicity of compound concentrations was determined 72 h post compound application by monitoring cell confluency using an IncuCyte Systems for Live-Cell Imaging. Cell confluency was determined with the IncuCyte 2019B Rev2 software. Confluency of controls was set to 1 (100%) and altered confluency at distinct compound concentrations was calculated as relative confluency. The mean relative confluency at compound concentrations was analyzed in three independent studies with three technical replicates each. The mean values of three analyses were plotted against the logarithmic concentration of compounds and fitted by the non-linear module [Sigmoidal, 4PL, X is log(concentration)] using GraphPad Prism V9(86) for macOS. In Table 1 compounds with EC50 values, indicating the potency of the 58 developed compounds to impair cell vitality, are listed. […] Table 2: EC-values of the synthesized compounds of formula (I)
In turn, `COc1ccc(C(=O)Nc2sc(Cc3ccccc3)cc2C(N)=O)cc1COc1cccc(Cl)c1Cl` [compound 45, 5-Benzyl-2-({3-[(2,3-dichlorophenoxy)methyl]-4-methoxybenzoyl}amino)-3-thiophenecarboxamide] displayed an EC50 of 401 nM.

As for `COc1ccc(C(=O)Nc2sc(Cc3ccccc3)cc2C(N)=O)cc1COc1ccc(Cl)cc1` [compound 52, 5-Benzyl-2-{3-[(4-chlorophenoxy)methyl]-4-methoxybenzamido}thiophene-3-carboxamide], the concentration for a half-maximal effect (EC50) is 1020 nM. Regarding `NC(=O)c1ccccc1NC(=O)c1ccc(Cl)c(Cl)c1` [compound 12, N-[2-(aminocarbonyl)phenyl]-3,4-dichlorobenzamide], the EC50 is 1880 nM.

`CC(Sc1nnc(NC(=O)c2ccccc2)s1)c1nc2ccccc2c(=O)[nH]1` (centres unmarked) [compound 6, N-(5-{[1-(4-oxo-3,4-dihydro-2-quinazolinyl)ethyl]thio}-1,3,4-thiadiazol-2-yl)benzamide] returned an EC50 of 4050 nM. On to `NC(=O)c1ccccc1OCC(=O)c1ccc(Br)cc1` [compound 19, 2-[2-(4-Bromophenyl)-2-oxoethoxy]benzamide], for which the EC50 was determined as 2950 nM. `NC(=O)c1cc(Cc2ccccc2)sc1NC(=O)CN1CCN(Cc2ccc(Cl)c(Cl)c2)CC1` [compound 55, 2-{2-[4-(3,4-Dichlorobenzyl)piperazin-1-yl]acetamido}-5-benzylthiophene-3-carboxamide] came in with an EC50 of 4090 nM. As to `COc1ccc(C(=O)Nc2sc(Cc3ccccc3)cc2C(N)=O)cc1` [compound 41, 5-Benzyl-2-[(4-methoxybenzoyl)amino]-3-thiophenecarboxamide], the response was half-maximal at 1940 nM (EC50).

For the compound `COc1ccc(C(=O)Nc2sc(Cc3ccccc3)cc2C(N)=O)cc1COc1cccc(Cl)c1` [compound 51, 5-Benzyl-2-{3-[(3-chlorophenoxy)methyl]-4-methoxybenzamido}thiophene-3-carboxamide], the EC50 came out at 355 nM.

For `NC(=O)c1ccsc1NC(=O)c1cccs1` [compound 10, N-[3-(aminocarbonyl)-2-thienyl]-2-thiophenecarboxamide], the EC50 was found to be 3230 nM. In the case of `NC(=O)c1ccccc1NC(=O)CN1CCN(Cc2ccc(Cl)c(Cl)c2)CC1` [compound 20, 2-({[4-(3,4-Dichlorobenzyl)-1-piperazinyl]acetyl}amino)benzamide], the EC50 is 1220 nM. Consider `NC(=O)c1cc(Cc2ccccc2)sc1NC(=O)c1ccc(COc2ccc(Cl)cc2Cl)s1` [compound 49, N-(5-Benzyl-3-carbamoylthiophen-2-yl)-5-[(2,4-dichlorophenoxy)methyl]thiophene-2-carboxamide], for which the response was half-maximal at 560 nM (EC50). As to `NC(=O)c1c(NC(=O)c2ccc(Cl)s2)sc2c1CCC2` [compound 29, 2-{[(5-Chloro-2-thienyl)carbonyl]amino}-5,6-dihydro-4H-cyclopenta[b]thiophene-3-carboxamide], the half-maximal effective concentration (EC50) is 6270 nM. In the case of `COc1cc(-c2nc3ccccc3c(=O)[nH]2)ccc1OCc1ccccc1[N+](=O)[O-]` [compound 3, 2-{3-Methoxy-4-[(2-nitrobenzyl)oxy]phenyl}-4(3H)-quinazolinone], the concentration giving a half-maximal response (EC50) amounted to 476 nM. In the case of `NC(=O)c1ccccc1NC(=O)CN1CCN(Cc2ccccc2Cl)CC1` [compound 24, 2-({[4-(2-Chlorobenzyl)-1-piperazinyl]acetyl}amino)benzamide], a half-maximal effect (EC50) was put at 9580 nM. Same read-out and setting: with `COc1ccc(C(=O)Nc2sc(Cc3ccccc3)cc2C(N)=O)cc1COc1ccccc1Cl` [compound 44, 5-Benzyl-2-({3-[(2-chlorophenoxy)methyl]-4-methoxybenzoyl}amino)-3-thiophenecarboxamide] the figure was 439 nM; with `CCc1cc(C(=O)Nc2sc(Cc3ccccc3)cc2C(N)=O)cs1` [compound 32, 5-Benzyl-2-{[(5-ethyl-3-thienyl)carbonyl]amino}-3-thiophenecarboxamide], 1900 nM. The compound `COc1ccc(C(=O)Nc2sccc2C(N)=O)cc1COc1ccccc1Cl` [compound 27, 2-{3-[(2-Chlorophenoxy)methyl]-4-methoxybenzamido}thiophene-3-carboxamide] had an EC50 of 1660 nM. With `NC(=O)c1cc(Cc2ccccc2)sc1NC(=O)Cc1cccs1` [compound 34, 5-Benzyl-2-[(2-thienylacetyl)amino]-3-thiophenecarboxamide], the concentration giving a half-maximal response (EC50) is 1160 nM. On to `COc1ccc(C(=O)Nc2ccccc2C(N)=O)cc1Cl` [compound 16, N-[2-(aminocarbonyl)phenyl]-3-chloro-4-methoxybenzamide], for which the midpoint of the response, the EC50, lay at 5840 nM.

For another assay, the system named is ES-2 cells. The description is as above. The format is cell-based. Particulars: Homo sapiens, determined in 11 analyses with three technical replicates each.
`NC(=O)c1ccccc1N=Cc1ccc(Br)s1` [BTYNB, 2-{[(5-bromo-2-thienyl)methylene]amino}benzamide] yielded an EC50 of 5900 nM.
